According to patent publication US20220211603A1, “Oral Compositions And Methods Of Use” (3M INNOVATIVE PROPERTIES COMPANY, priority 2019, published 2022):

System: Streptococcus mutans (ATCC 25175) biofilm
Test: MBEC Biofilm Disruption Assay
Type: cell-based
Settings: glucosamine HCl combined with MEGA-9 in water
From the text: In some embodiments, disclosed compositions can prevent, inhibit, disrupt the formation or maintenance of a biofilm in an area contacted with the composition. The area contacted can be in vivo or in vitro. In some embodiments, a composition can prevent, inhibit, disrupt the formation or maintenance of a biofilm in a mouth of a user where the composition was applied to the mouth, for example via spraying the composition into the mouth when compared to a mouth without the composition applied thereto. […] Preventing, inhibiting, disrupting, or some combination thereof the formation or maintenance of biofilms can be measured using a modified version of the MBEC assay (described in ASTM […]-12), which measures disruption of Streptococcus mutans biofilms grown on special pegs in a microtiter plate. […] The biofilm remaining on each peg following treatment is quantified by measuring the amount of fluorescently labeled bacteria that eluted from the pegs at the end of the treatment cycles (see example). […] Decreasing plaque buildup can be measured by a variety of methods in vivo including for example plaque scoring, dyeing of plaque, etc. […] Control wells for fluorescence readings were also filled with 150 microliter of phosphate-buffered saline (PBS) or non-bacteria-containing media consisting of BHI with 1% sucrose and 1 micromolar ALEXA FLUOR 488 dextran. […]

Compound: Cl.N[C@H]1C(O)O[C@H](CO)[C@@H](O)[C@@H]1O (stereo partly shown) [Glucosamine HCl]
- effect on biofilm disruption of MEGA-9 (in words): enhanced the biofilm disruption effect of MEGA-9
